Test results published in patent US20080070859A1, “Compounds resistant to metabolic deactivation and methods of use” (priority 2002, published 2008).

Experiments:
CEM/Cl = test: MTT assay of cell viability, CEM/Cl; type: cell-based; settings: 5 days at 37 C
Method: (§1) The in vitro cytotoxicities of thioaminal prodrugs of Cordycepin were compared to the parent drug Cordycepin using a standard MTT assay of cell viability (Hansen et al. (1989) J. Immunol. Meth. 119:203-10). Leukemia cell lines growing in the exponential phase (MOLT, […], and CEM/Cl) were plated at a final concentration of 1×10^5 cells/ml and exposed to serial dilutions of the Cordycepin prodrugs. In a subset of the experiments (denoted by “+”), the cells were preincubated with 1 μM of the ADA inhibitor 2′-deoxycoformycin for 30 minutes prior to addition of prodrug. Cell viability was determined after incubation for 5 days at 37 C by addition of 3-(4,5-dimethylthizaol-2-yl)-2,5-diplenyl-tetrazolium dye. IC50 was defined as the drug concentration that reduced cell viability 50% in comparison with the appropriate control.

[1] = HPLC stability analysis: hydrolysis of the prodrug to Cordycepin in phosphate buffer; type: physicochemical; settings: 0.63 mM in 30 mM phosphate buffer (pH 7.3) containing 5% DMSO, 37 C; for half-life at 0.63 mM: read-out: t½ (time point at which half of the Cordycepin prodrug was hydrolysed to Cordycepin) (converted)
Method: To analyze the half-life of thioaminal prodrugs, HPLC stability analysis was performed on the following Cordycepin prodrugs. Solutions (0.63 mM) of each of the following compounds was prepared in 30 mM phosphate buffer (pH 7.3) containing 5% DMSO and incubated at 37 C.

MOLT = test: MTT assay of cell viability, MOLT; type: cell-based; settings: 5 days at 37 C
Method: as §1

HL-60 = test: MTT assay of cell viability, HL-60; type: cell-based; settings: 5 days at 37 C
Method: as §1

[2] = system: Leukemia cell lines (MOLT, HL-69, and CEM/Cl); test: MTT assay of cell viability, overall comparison with Cordycepin; type: cell-based; settings: both in the presence and absence of ADA inhibitor
Method: as §1

[3] = system: Leukemia cell lines (MOLT, and CEM/Cl); test: as above; type: cell-based; settings: absence vs presence of ADA inhibitor 2′-deoxycoformycin
Method: as §1

[4] = + (preincubated with 1 μM 2′-deoxycoformycin for 30 minutes)
[5] = HL-60, + (preincubated with 1 μM 2′-deoxycoformycin for 30 minutes)
[6] = Homo sapiens, 120 h, HL-60, − (no ADA inhibitor)

IC50 (MOLT; 120 h, − (no ADA inhibitor))	IC50 (MOLT; [4])	half-life at 0.63 mM [1]	IC50 (HL-60; [5])	IC50 (HL-60; [6])	Molecule	IC50 (CEM/Cl; [4])	IC50 (CEM/Cl; − (no ADA inhibitor))	t½ (time point at which half of the Cordycepin prodrug was hydrolysed to Cordycepin) [1]	IC50 (CEM/Cl; 120 h, − (no ADA inhibitor))	cytotoxic potency compared to Cordycepin [2]	attenuation of activity in the absence of ADA inhibitor [3]
–	–	–	–	–	6-N-(4-N-acetylbenzylthio)methyl-Cordycepin [8b]	3 µM	15 µM	–	–	–	–
–	–	–	–	–	CCSCNc1ncnc2c1ncn2[C@@H]1O[C@H](CO)C[C@H]1O [1b, 6-N-(Ethanethio)methyl-Cordycepin]	–	–	>72 h	–	–	–
–	–	–	–	–	OCCSCNc1ncnc2c1ncn2[C@@H]1O[C@H](CO)C[C@H]1O [2b, 6-N-(2-hydroxyethanethio)methyl-Cordycepin]	–	–	>72 h	–	–	–
18 µM	16 µM	15 h	7 µM	24 µM	OC[C@@H]1C[C@@H](O)[C@H](n2cnc3c(NCSc4ccccc4)ncnc32)O1 [3b, 6-N-(phenylthiol)methyl-Cordycepin]	2 µM	–	–	5.5 µM	more potent cytotoxic agents than Cordycepin	not significantly attenuated
35 µM	30 µM	–	17 µM	50 µM	Cc1ccc(SCNc2ncnc3c2ncn3[C@@H]2O[C@H](CO)C[C@H]2O)cc1 [4b]	5 µM	–	–	24 µM	more potent cytotoxic agents than Cordycepin	–
–	–	17 h	–	–	COc1ccc(SCNc2ncnc3c2ncn3[C@@H]2O[C@H](CO)C[C@H]2O)cc1 [5b, 6-N-(4-methoxybenzothio)methyl-Cordycepin]	3 µM	–	–	15 µM	more potent cytotoxic agents than Cordycepin	–
–	–	–	–	–	O=[N+]([O-])c1ccc(CSCNc2ncnc3c2ncn3[C@@H]2O[C@H](CO)C[C@H]2O)cc1 [7b, 6-N-(4-nitrobenzylthio)methyl-Cordycepin]	–	–	1 h	–	–	–
80 µM	21 µM	–	9 µM	42 µM	Nc1ncnc2c1ncn2[C@@H]1O[C@H](CO)C[C@H]1O [Cordycepin, 3′-deoxyadenosine, reference compound]	2 µM	–	–	27 µM	–	–
